Reference: PubChem BioAssay (NCI)
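Cells were grown in 96-well plates and exposed to each compound for 48 hours at five concentrations; endpoints were interpolated linearly between bracketing concentrations, or set to the highest concentration if not reached. TGI denotes the concentration required for complete inhibition of growth.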

Key:
Assay in all cases: DTP human tumour cell line panel, 48 h
SK-OV-3 ovarian = test system: SK-OV-3 ovarian
SK-MEL-2 melanoma = test system: SK-MEL-2 melanoma
T-47D breast = test system: T-47D breast
NCI-H460 lung = test system: NCI-H460 lung
U251 CNS = test system: U251 CNS
NCI-H23 lung = test system: NCI-H23 lung
A549 NSCLC = test system: A549 NSCLC
SK-MEL-28 melanoma = test system: SK-MEL-28 melanoma
SF-539 CNS = test system: SF-539 CNS
SK-MEL-5 melanoma = test system: SK-MEL-5 melanoma
SN12C renal = test system: SN12C renal
OVCAR-8 ovarian = test system: OVCAR-8 ovarian
MDA-MB-231 breast = test system: MDA-MB-231 breast
MALME-3M melanoma = test system: MALME-3M melanoma
HCT-116 colon = test system: HCT-116 colon
OVCAR-5 ovarian = test system: OVCAR-5 ovarian
HCT-15 colon = test system: HCT-15 colon
OVCAR-3 ovarian = test system: OVCAR-3 ovarian
RXF 393 renal = test system: RXF 393 renal
MDA-N = test system: MDA-N
786-0 renal = test system: 786-0 renal
SF-268 CNS = test system: SF-268 CNS
SW-620 colon = test system: SW-620 colon
OVCAR-4 ovarian = test system: OVCAR-4 ovarian
A498 renal = test system: A498 renal
HOP-62 NSCLC = test system: HOP-62 NSCLC
PC-3 prostate = test system: PC-3 prostate
K-562 leukemia = test system: K-562 leukemia
UO-31 renal = test system: UO-31 renal
SNB-19 CNS = test system: SNB-19 CNS
HOP-92 NSCLC = test system: HOP-92 NSCLC
COLO 205 colon = test system: COLO 205 colon
RPMI-8226 leukemia = test system: RPMI-8226 leukemia
SF-295 CNS = test system: SF-295 CNS
NCI-H522 lung = test system: NCI-H522 lung
DU-145 prostate = test system: DU-145 prostate
MOLT-4 leukemia = test system: MOLT-4 leukemia
CAKI-1 renal = test system: CAKI-1 renal
KM12 colon = test system: KM12 colon
NCI/ADR-RES ovarian = test system: NCI/ADR-RES ovarian
MDA-MB-435 = test system: MDA-MB-435
HT29 colon = test system: HT29 colon
MCF7 breast = test system: MCF7 breast
M14 melanoma = test system: M14 melanoma
UACC-62 melanoma = test system: UACC-62 melanoma
LOX IMVI melanoma = test system: LOX IMVI melanoma
SNB-75 CNS = test system: SNB-75 CNS
SR leukemia = test system: SR leukemia
NCI-H226 lung = test system: NCI-H226 lung
UACC-257 melanoma = test system: UACC-257 melanoma
IGROV1 ovarian = test system: IGROV1 ovarian
ACHN renal = test system: ACHN renal
HL-60(TB) leukemia = test system: HL-60(TB) leukemia
CCRF-CEM leukemia = test system: CCRF-CEM leukemia
HCC-2998 colon = test system: HCC-2998 colon
EKVX NSCLC = test system: EKVX NSCLC

O=C(O)[C@H](Cc1ccccc1)NCCN1CCC[C@H]1C(=O)O
TGI (SK-OV-3 ovarian): > 100 µM | TGI (SK-MEL-2 melanoma): > 100 µM | TGI (T-47D breast): > 100 µM | TGI (NCI-H460 lung): > 100 µM | TGI (U251 CNS): > 100 µM | TGI (NCI-H23 lung): > 100 µM | TGI (A549 NSCLC): > 100 µM | TGI (SK-MEL-28 melanoma): > 100 µM | TGI (SF-539 CNS): > 100 µM | TGI (SK-MEL-5 melanoma): > 100 µM | TGI (SN12C renal): > 100 µM | TGI (OVCAR-8 ovarian): > 100 µM | TGI (MDA-MB-231 breast): > 100 µM | TGI (MALME-3M melanoma): > 100 µM | TGI (HCT-116 colon): > 100 µM | TGI (OVCAR-5 ovarian): > 100 µM | TGI (HCT-15 colon): > 100 µM | TGI (OVCAR-3 ovarian): > 100 µM | TGI (RXF 393 renal): > 100 µM | TGI (MDA-N): > 100 µM | TGI (786-0 renal): > 100 µM | TGI (SF-268 CNS): > 100 µM | TGI (SW-620 colon): > 100 µM | TGI (OVCAR-4 ovarian): > 100 µM | TGI (A498 renal): > 100 µM | TGI (HOP-62 NSCLC): > 100 µM | TGI (PC-3 prostate): > 100 µM | TGI (K-562 leukemia): > 100 µM | TGI (UO-31 renal): > 100 µM | TGI (SNB-19 CNS): > 100 µM | TGI (HOP-92 NSCLC): 72.3 µM | TGI (COLO 205 colon): > 100 µM | TGI (RPMI-8226 leukemia): > 100 µM | TGI (SF-295 CNS): > 100 µM | TGI (NCI-H522 lung): > 100 µM | TGI (DU-145 prostate): > 100 µM | TGI (MOLT-4 leukemia): > 100 µM | TGI (CAKI-1 renal): > 100 µM | TGI (KM12 colon): > 100 µM | TGI (NCI/ADR-RES ovarian): > 100 µM | TGI (MDA-MB-435): > 100 µM | TGI (HT29 colon): > 100 µM | TGI (MCF7 breast): > 100 µM | TGI (M14 melanoma): > 100 µM | TGI (UACC-62 melanoma): > 100 µM

O/N=C1/CC2(N3CCOCC3)C3CC/C(=N\O)C2CC1(Cc1ccccc1)C3 (centres undefined)
TGI (LOX IMVI melanoma): > 100 µM | TGI (SNB-75 CNS): 96 µM | TGI (SK-OV-3 ovarian): > 100 µM | TGI (SK-MEL-2 melanoma): > 100 µM | TGI (T-47D breast): > 100 µM | TGI (NCI-H460 lung): > 100 µM | TGI (U251 CNS): > 100 µM | TGI (NCI-H23 lung): > 100 µM | TGI (A549 NSCLC): > 100 µM | TGI (SR leukemia): > 100 µM | TGI (NCI-H226 lung): > 100 µM | TGI (SK-MEL-28 melanoma): > 100 µM | TGI (SF-539 CNS): > 100 µM | TGI (UACC-257 melanoma): > 100 µM | TGI (SK-MEL-5 melanoma): > 100 µM | TGI (SN12C renal): > 100 µM | TGI (OVCAR-8 ovarian): > 100 µM | TGI (MDA-MB-231 breast): > 100 µM | TGI (MALME-3M melanoma): > 100 µM | TGI (HCT-116 colon): > 100 µM | TGI (OVCAR-5 ovarian): > 100 µM | TGI (HCT-15 colon): > 100 µM | TGI (OVCAR-3 ovarian): > 100 µM | TGI (RXF 393 renal): > 100 µM | TGI (MDA-N): > 100 µM | TGI (786-0 renal): > 100 µM | TGI (SF-268 CNS): > 100 µM | TGI (SW-620 colon): > 100 µM | TGI (IGROV1 ovarian): > 100 µM | TGI (OVCAR-4 ovarian): > 100 µM | TGI (ACHN renal): > 100 µM | TGI (HL-60(TB) leukemia): > 100 µM | TGI (A498 renal): > 100 µM | TGI (CCRF-CEM leukemia): > 100 µM | TGI (HCC-2998 colon): > 100 µM | TGI (HOP-62 NSCLC): > 100 µM | TGI (PC-3 prostate): > 100 µM | TGI (K-562 leukemia): > 100 µM | TGI (UO-31 renal): > 100 µM | TGI (SNB-19 CNS): > 100 µM | TGI (COLO 205 colon): > 100 µM | TGI (SF-295 CNS): > 100 µM | TGI (EKVX NSCLC): > 100 µM | TGI (NCI-H522 lung): > 100 µM | TGI (DU-145 prostate): > 100 µM | TGI (MOLT-4 leukemia): > 100 µM | TGI (CAKI-1 renal): > 100 µM | TGI (KM12 colon): > 100 µM | TGI (NCI/ADR-RES ovarian): > 100 µM | TGI (MDA-MB-435): > 100 µM | TGI (HT29 colon): > 100 µM | TGI (MCF7 breast): > 100 µM | TGI (M14 melanoma): > 100 µM | TGI (UACC-62 melanoma): > 100 µM
